Laboratory results from PubChem BioAssay AID1996.
In brackets after ≈: the same amount, converted by molar mass.

Conditions: buffer; pH 7.4; 200.0 µM

Structure (SMILES)	solubility kinetic
Cn1c(NCCO)nc2c1c(=O)n(Cc1ccc(F)cc1)c(=O)n2C	50.6 µg/mL (≈ 146 µM)
CC1(C)N([O-])C2=C(CCCC2)[N+]1=O	> 27.3 µg/mL
COC(=O)CN1CC(=O)N(c2ccccc2)C1=S	> 39.6 µg/mL
CC(NC(=O)Nc1cccc([N+](=O)[O-])c1)c1ccc2c(c1)OCO2 (stereo not given)	2.2 µg/mL (≈ 6.68 µM)
CCOC(=O)c1sc(=S)n(CC)c1NC(=O)c1ccccc1C	3.4 µg/mL (≈ 9.7 µM)
O=C1c2ccccc2C(=O)N1c1ccc(Cc2ccncc2)cc1	44.9 µg/mL (≈ 143 µM)
Cc1ccc(NC(=O)C2C3CCCCC32)cc1[N+](=O)[O-] (stereo not given)	0.5 µg/mL (≈ 1.82 µM)
COc1ccc(C2(C)NC(=O)N(CC(=O)NC3(C#N)CCCCC3)C2=O)cc1 (stereo not given)	> 57.7 µg/mL
CCSc1nc(C)nc2sc(C)c(C)c12	< 0.3 µg/mL
Cn1c(=O)[nH]c(=O)c2c1nc(NCCN)n2CCOc1ccccc1	49.1 µg/mL (≈ 143 µM)
COCCCNC(=S)Nc1ccc(OC(F)F)cc1C	45.1 µg/mL (≈ 148 µM)
CC(C)(C)c1ccc(CCC2OCC(C[N+]3(C)CCOCC3)O2)cc1.[I-] (stereo not given)	> 71.3 µg/mL
Cc1csc(NC(=O)C2CC(=O)N(c3ccc(C)c(C)c3)C2)n1 (stereo not given)	42.4 µg/mL (≈ 129 µM)
CC(=O)c1sc(-c2ccc(F)cc2F)nc1C	0.8 µg/mL (≈ 3.16 µM)
COc1ccccc1NC(=O)NNC(=O)CCN1CCOCC1	> 48.4 µg/mL
O=C(NC1CCCCC1)c1ccc(N2CCOCC2)c([N+](=O)[O-])c1	> 50 µg/mL
Cc1ccccc1C(=O)Nc1nc(-c2cccnc2)cs1	3.9 µg/mL (≈ 13.2 µM)
Cc1[nH]c2c(C)cccc2c1CC(=O)O	> 30.5 µg/mL
O=C(NCc1ccco1)Nc1ccc([N+](=O)[O-])cc1	16.5 µg/mL (≈ 63.2 µM)
CN(C)c1ncc(S(=O)(=O)c2ccccc2)c(=O)[nH]1	> 41.9 µg/mL
Cc1ccc(C2NC(c3ccc(C)cc3)C(C)C(=O)C2C)cc1 (stereo not given)	< 0.7 µg/mL
N#Cc1ccc(COC(=O)c2cnc3ccccc3n2)cc1	6.1 µg/mL (≈ 21.1 µM)

Structure (SMILES)	solubility kinetic
O=C(NCCc1ccc(Cl)cc1)c1cc(=O)[nH]c2ccccc12	2.4 µg/mL (≈ 7.34 µM)
Nc1nc2nc(-c3ccccc3)cc(C(F)(F)F)c2s1	4.1 µg/mL (≈ 13.9 µM)
Cc1occc1C(=O)Nc1cccc(S(=O)(=O)N2CCOCC2)c1	52.2 µg/mL (≈ 149 µM)
O=C1/C(=C/c2ccccn2)SC(=S)N1Cc1ccccc1	< 0.3 µg/mL
COc1cc([N+](=O)[O-])ccc1NC(=O)Nc1cnccn1	0.8 µg/mL (≈ 2.77 µM)
O=[N+]([O-])c1ccc(Cl)cc1N1CCCCC1	< 0.3 µg/mL
COC(=O)c1sccc1NC(=O)c1cccs1	< 0.6 µg/mL
COc1ccccc1NS(=O)(=O)c1ccc(C(=O)N2CCCCCC2)cc1	> 58.3 µg/mL
O=C(Nc1ccccc1C(=O)Nc1ccncc1)c1ccc([N+](=O)[O-])cc1	11.2 µg/mL (≈ 30.9 µM)
O=c1c2ccccc2nc(CNCC2CCCO2)n1-c1ccc(F)cc1 (stereo not given)	44.9 µg/mL (≈ 127 µM)
Nc1ccc(SCc2cccnc2)cc1	31 µg/mL (≈ 143 µM)
COc1ccc(C(=O)Nc2ccccc2C(=O)N2CCOCC2)cc1OC	46.7 µg/mL (≈ 126 µM)
O=C(Nc1cccc(Cl)c1)OC1CCCCc2cccnc21 (stereo not given)	9.3 µg/mL (≈ 29.4 µM)
CC1=CC(C)(C)NC(=S)N1NC(=O)c1ccccc1Cl	> 46.5 µg/mL
COc1ccc(C(CC(=O)O)N2Cc3ccccc3C2=O)cc1 (stereo not given)	> 46.7 µg/mL
COc1ccc(NC(=O)NCCCCc2ccccc2)cc1	2.1 µg/mL (≈ 7.04 µM)
Cc1ncoc1C(=O)N1CCCC(C(=O)c2cccc3ccccc23)C1 (stereo not given)	50.3 µg/mL (≈ 144 µM)
O=C1NC(=Nc2ccccc2Cl)SC1(CO)CO	42.3 µg/mL (≈ 148 µM)
CC(C)n1cnc2cc(NC(=O)c3ccco3)ccc21	> 40.4 µg/mL
CC1CN(S(=O)(=O)c2cccc(C(=O)N3CCC(C(N)=O)CC3)c2)CC(C)O1 (stereo not given)	> 61.4 µg/mL
Nc1ccc2nc3c(c(Cl)c2c1)CCCC3	25.1 µg/mL (≈ 108 µM)
COC(=O)Cc1ccc(NC(=S)NC2CC2)cc1	> 39.7 µg/mL

Structure (SMILES)	solubility kinetic
CC(NC(=O)CCSCc1ccccc1F)c1ccccc1 (stereo not given)	44.5 µg/mL (≈ 140 µM)
O=C1C2C3C=CC(C4CC34)C2C(=O)N1c1cc(Cl)ccn1 (stereo not given)	42.6 µg/mL (≈ 142 µM)
Cc1c(Cl)c(=O)oc2cc(OCC(=O)N3CCCC(C)C3)ccc12 (stereo not given)	38 µg/mL (≈ 109 µM)
O=C(OCCN=C1NS(=O)(=O)c2ccccc21)c1ccccc1F	5.7 µg/mL (≈ 16.4 µM)
CC1CN(c2ccc([N+](=O)[O-])cc2Cl)CCN1S(C)(=O)=O (stereo not given)	> 50.1 µg/mL
COC(=O)c1cn(S(=O)(=O)c2ccccc2)c2ccccc12	2 µg/mL (≈ 6.34 µM)
CCn1cc(C(=O)OCC(=O)Nc2ccccc2OC(F)F)c(=O)c2ccc(C)nc21	4.8 µg/mL (≈ 11.1 µM)
O=C(NCCN1CCOCC1)c1ccc(Cl)cc1	> 40.3 µg/mL
CCc1cc2c(SC(C)C(=O)NC3CCCC3)ncnc2s1 (stereo not given)	34.4 µg/mL (≈ 103 µM)
CCN(Cc1nc(-c2ccccc2)no1)C(=O)c1ccc2c(c1)OCO2	36.5 µg/mL (≈ 104 µM)
CCCCNC(=O)c1cc(C)nc2ccccc12	> 36.3 µg/mL
NC(=O)c1ccccc1N	> 20.4 µg/mL
COc1cc(SC)ccc1C(=O)N(Cc1ccccc1)c1ccccc1	6.3 µg/mL (≈ 17.3 µM)
O=C(NCc1ccncc1)C(=O)NCc1ccncc1	> 40.5 µg/mL
O=C(NCc1ccccc1)NCC12CC3CC(CC(C3)C1)C2	1.3 µg/mL (≈ 4.36 µM)
Cc1cc(O)c(Sc2ccc(Cl)cc2)c(=O)[nH]1	> 40.2 µg/mL
COc1ccc(NC(=O)C2CCCN(C(=O)Nc3ccc(F)cc3)C2)cc1 (stereo not given)	12.4 µg/mL (≈ 33.4 µM)
COc1cccc(CC(=O)Nc2ccccc2N2CCCC2)c1	43.9 µg/mL (≈ 141 µM)
Cc1c(C(=O)N(C)Cc2ccc(OC(F)F)cc2)oc2ccccc12	6.5 µg/mL (≈ 18.8 µM)
CC1C(=O)N2CCCc3cc(NC(=O)c4ccccc4F)cc1c32 (stereo not given)	> 48.7 µg/mL
Nc1ncnc2c1ncn2[C@@H]1O[C@H](CO)[C@@H](O)[C@H]1O	> 40.1 µg/mL
CCOC(=O)c1c2c3c(cccc3[nH]c1=O)C(=O)c1ccccc1-2	< 0.7 µg/mL

Structure (SMILES)	solubility kinetic
COc1cc(Br)c(CN2CCCN(C)CC2)cc1OC	44.2 µg/mL (≈ 129 µM)
CCN1CCN(c2ccc(N=Cc3ccccc3O)cc2)CC1	40.7 µg/mL (≈ 132 µM)
Cc1noc(C)c1S(=O)(=O)NCc1cccc(Cl)c1	> 45.1 µg/mL
COc1cc2c(cc1OC)CN(c1ccc(C(N)=O)cc1[N+](=O)[O-])CC2	6.4 µg/mL (≈ 17.9 µM)
Cc1ccc2c(C)c(C(=O)N(C)Cc3nccn3C)oc2c1C	> 46.7 µg/mL
COC(=O)CSc1[nH]c2cc(C)ccc2c1[N+](=O)[O-]	> 42 µg/mL
COC(=O)c1cccc(NC(=O)c2ccccc2)c1	35.7 µg/mL (≈ 140 µM)
COc1ccccc1NC(=O)c1ccc(NC(=O)COC(=O)c2cncc(Br)c2)cc1	10 µg/mL (≈ 20.6 µM)
COc1ccc(Nc2ccc(C(F)(F)F)cc2[N+](=O)[O-])cn1	1.8 µg/mL (≈ 5.75 µM)
CC(C)NC(NC(=O)/C=C/c1ccccc1)C(Cl)(Cl)Cl (stereo not given)	44.7 µg/mL (≈ 133 µM)
O=C(NCC1CC1)Nc1ccccc1	> 28.5 µg/mL
Cc1ccc(NC(=S)N2CCC(NC(=O)c3ccco3)CC2)cc1C	39.2 µg/mL (≈ 110 µM)
CS(=O)(=O)N1CCc2cc(C(=O)Nc3ccccc3)ccc21	2.3 µg/mL (≈ 7.27 µM)
CCOC(=O)c1c(O)c(Cl)c(C)[nH]c1=O	> 34.7 µg/mL
CN/C(=C/[N+](=O)[O-])NCCSCc1ccc(CN(C)C)o1.Cl	52.4 µg/mL
O=C(NCC1CCCO1)c1ccc(NC(=O)c2ccc(Br)cc2)cc1 (stereo not given)	1.2 µg/mL (≈ 2.98 µM)
COc1cccc(C(=O)NC2CCCc3ccccc32)c1OC (stereo not given)	31.6 µg/mL (≈ 101 µM)
CCOc1ccccc1NC(=O)CN1CCc2ccccc2C1	1.9 µg/mL (≈ 6.12 µM)
O=C(Nc1nncs1)C1CC(=O)N(C2CCCC2)C1 (stereo not given)	> 42.1 µg/mL
